One may read the EC30 as the concentration needed for an effect of 30%.

The structures appear in SMILES notation. Some results are limits rather than exact numbers.

The target in one assay is T1, F508del (Homo sapiens, UniProt P13569, DEL508-508).
T1 construct: expressed in transfected cells
T1 sequence (P13569 with tags, fused parts or gaps DEL508-508): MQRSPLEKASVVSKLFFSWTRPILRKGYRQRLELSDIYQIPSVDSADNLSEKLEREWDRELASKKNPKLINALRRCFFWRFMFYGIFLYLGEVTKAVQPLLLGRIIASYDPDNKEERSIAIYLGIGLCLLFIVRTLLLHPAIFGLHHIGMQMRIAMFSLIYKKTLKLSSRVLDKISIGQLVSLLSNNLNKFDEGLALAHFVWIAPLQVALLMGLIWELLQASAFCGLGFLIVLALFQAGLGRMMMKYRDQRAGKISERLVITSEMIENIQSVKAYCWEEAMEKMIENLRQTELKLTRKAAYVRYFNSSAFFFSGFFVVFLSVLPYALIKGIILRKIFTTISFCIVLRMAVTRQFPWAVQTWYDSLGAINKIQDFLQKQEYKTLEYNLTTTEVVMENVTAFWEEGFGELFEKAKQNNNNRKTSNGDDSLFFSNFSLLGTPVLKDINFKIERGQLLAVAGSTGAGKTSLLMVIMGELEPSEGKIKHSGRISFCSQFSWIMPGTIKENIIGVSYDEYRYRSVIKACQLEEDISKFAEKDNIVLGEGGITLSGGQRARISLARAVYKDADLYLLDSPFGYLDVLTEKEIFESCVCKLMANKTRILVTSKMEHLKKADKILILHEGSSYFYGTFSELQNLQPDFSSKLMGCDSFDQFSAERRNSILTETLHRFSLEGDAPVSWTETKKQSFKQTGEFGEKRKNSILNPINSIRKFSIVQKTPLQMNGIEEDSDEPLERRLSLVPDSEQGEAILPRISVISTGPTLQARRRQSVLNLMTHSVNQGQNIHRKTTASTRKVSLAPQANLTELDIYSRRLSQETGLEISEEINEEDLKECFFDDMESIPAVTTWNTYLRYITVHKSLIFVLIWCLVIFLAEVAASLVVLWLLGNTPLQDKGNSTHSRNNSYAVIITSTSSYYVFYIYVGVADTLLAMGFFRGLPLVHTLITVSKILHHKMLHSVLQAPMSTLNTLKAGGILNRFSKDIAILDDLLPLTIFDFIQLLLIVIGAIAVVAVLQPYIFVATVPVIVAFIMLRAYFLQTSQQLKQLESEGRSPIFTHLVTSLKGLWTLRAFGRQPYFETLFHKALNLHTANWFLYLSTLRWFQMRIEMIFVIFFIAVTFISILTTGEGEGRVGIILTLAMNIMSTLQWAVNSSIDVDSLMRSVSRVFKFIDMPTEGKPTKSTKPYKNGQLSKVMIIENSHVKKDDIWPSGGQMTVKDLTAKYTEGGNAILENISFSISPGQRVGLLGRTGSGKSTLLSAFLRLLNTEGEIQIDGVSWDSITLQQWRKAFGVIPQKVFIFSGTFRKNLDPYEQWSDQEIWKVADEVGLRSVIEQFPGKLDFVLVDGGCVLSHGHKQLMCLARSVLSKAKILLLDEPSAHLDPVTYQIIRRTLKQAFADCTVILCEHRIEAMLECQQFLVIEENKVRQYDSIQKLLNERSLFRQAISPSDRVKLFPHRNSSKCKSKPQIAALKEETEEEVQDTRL
The assay can be described thus: Protocol 2: FRET membrane potential optical assay (VIPR), identification of correction compounds. Format: cell-based. Conditions: F508del CFTR modulator activity; compounds of Table 1; read-out: EC30. The procedure, abridged:
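FRET read-out (CC2-DMPE donor, DiSBAC2(3) voltage-sensitive acceptor) of membrane depolarization on VIPR II. Corrector candidates incubated 16 hrs at 37° C. with NIH3T3 cells expressing F508del; temperature correction at 27° C. as positive control; stimulation by 10 μM forskolin, 20 μM genistein, chloride-free gluconate bath.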
In the case of `CC1CN(c2ncccc2C(=O)NS(=O)(=O)c2cccc(OC3C=CCCC3)n2)C(C)(C)C1` (centres unmarked) [Compound 2147, N-[(6-cyclohex-2-en-1-yloxy-2-pyridyl)sulfonyl]-2-(2,2,4-trimethylpyrrolidin-1-yl)pyridine-3-carboxamide], the EC30 is less than 3000 nM.

As to `C[C@@H]1CN(c2nc(-c3cccc(C(F)(F)F)c3)ccc2C(=O)NS(=O)(=O)c2cccc(N)n2)C(C)(C)C1` [Compound 2392, N-[(6-amino-2-pyridyl)sulfonyl]-6-[3-(trifluoromethyl)phenyl]-2-[(4S)-2,2,4-trimethylpyrrolidin-1-yl]pyridine-3-carboxamide], the EC30 is less than 3000 nM.

For `Cc1cc(F)cc(-c2ccc(C(=O)NS(=O)(=O)c3cccnc3N)c(N3C[C@@H](C)CC3(C)C)n2)c1` [Compound 2505, N-[(2-amino-3-pyridyl)sulfonyl]-6-(3-fluoro-5-methyl-phenyl)-2-[(4S)-2,2,4-trimethylpyrrolidin-1-yl]pyridine-3-carboxamide], the EC30 is less than 3000 nM.

With `CCOCCOc1ccc(C(=O)NS(=O)(=O)c2cccc(N)n2)c(N2C[C@@H](C)CC2(C)C)n1` [Compound 2678, N-[(6-amino-2-pyridyl)sulfonyl]-6-(2-ethoxyethoxy)-2-[(4S)-2,2,4-trimethylpyrrolidin-1-yl]pyridine-3-carboxamide], the EC30 lay within 3000 to 10000 nM.

As to `C[C@@H]1CN(c2nc(-n3cc(OCC(C)(C)C)cn3)ccc2C(=O)NS(=O)(=O)c2cccc(N)n2)C(C)(C)C1` [Compound 2603, N-[(6-amino-2-pyridyl)sulfonyl]-6-[4-(2,2-dimethylpropoxy)pyrazol-1-yl]-2-[(4S)-2,2,4-trimethylpyrrolidin-1-yl]pyridine-3-carboxamide], the EC30 is less than 3000 nM.

Take `C[C@@H]1CN(c2nc(-c3ccc4[nH]ccc4c3)ccc2C(=O)NS(=O)(=O)c2cccnc2N)C(C)(C)C1` [Compound 2125, N-[(2-amino-3-pyridyl)sulfonyl]-6-(1H-indol-5-yl)-2-[(4S)-2,2,4-trimethylpyrrolidin-1-yl]pyridine-3-carboxamide]: the EC30 was less than 3000 nM.

`CCCCOCCCNc1cccc(S(=O)(=O)NC(=O)c2cccnc2N2CC(C)CC2(C)C)n1` (centres unmarked) [Compound 2529, N—[[6-(3-butoxypropylamino)-2-pyridyl]sulfonyl]-2-(2,2,4-trimethylpyrrolidin-1-yl)pyridine-3-carboxamide]: the EC30 is less than 3000 nM.

Take `CCOC(=O)c1ccc(OC)c(-c2cnc(N3CC(C)CC3(C)C)c(C(=O)NS(=O)(=O)c3cccc(N)n3)c2)c1` (centres unmarked) [Compound 2134, ethyl 3-[5-[(6-amino-2-pyridyl)sulfonylcarbamoyl]-6-(2,2,4-trimethylpyrrolidin-1-yl)-3-pyridyl]-4-methoxy-benzoate]: the EC30 is less than 3000 nM.

Turning to `CC(C)CCOc1cccc(S(=O)(=O)NC(=O)c2cccnc2N2CC(C)CC2(C)C)n1` (centres unmarked) [Compound 2075, N-[(6-isopentyloxy-2-pyridyl)sulfonyl]-2-(2,2,4-trimethylpyrrolidin-1-yl)pyridine-3-carboxamide], the EC30 was less than 3000 nM.

`COc1ncc(-c2ccc(C(=O)NS(=O)(=O)c3cccc(N)n3)c(N3C[C@@H](C)CC3(C)C)n2)cc1C` [Compound 2086, N-[(6-amino-2-pyridyl)sulfonyl]-6-(6-methoxy-5-methyl-3-pyridyl)-2-[(4S)-2,2,4-trimethylpyrrolidin-1-yl]pyridine-3-carboxamide]: the EC30 is less than 3000 nM.

Consider `Cc1cc(C)nc(Nc2cccc(S(=O)(=O)NC(=O)c3cccnc3N3CC(C)CC3(C)C)n2)c1` (centres unmarked) [Compound 2160, N—[[6-[(4,6-dimethyl-2-pyridyl)amino]-2-pyridyl]sulfonyl]-2-(2,2,4-trimethylpyrrolidin-1-yl)pyridine-3-carboxamide], for which the EC30 is 3000 to 10000 nM.

For `C[C@@H]1CN(c2nc(C(C)(C)C)c(C3=CCN(C(=O)NC4CCCCC4)CC3)cc2C(=O)NS(=O)(=O)c2cccc(N)n2)C(C)(C)C1` [Compound 2520, N-[(6-amino-2-pyridyl)sulfonyl]-6-tert-butyl-5-[1-(cyclohexylcarbamoyl)-3,6-dihydro-2H-pyridin-4-yl]-2-[(4S)-2,2,4-trimethylpyrrolidin-1-yl]pyridine-3-carboxamide], the EC30 lay within 3000 to 10000 nM.

In the case of `CC1CN(c2ncccc2C(=O)NS(=O)(=O)c2cccc(Nc3cccc(OC(C)C)c3)n2)C(C)(C)C1` (centres unmarked) [Compound 2353, N—[[6-(3-isopropoxyanilino)-2-pyridyl]sulfonyl]-2-(2,2,4-trimethylpyrrolidin-1-yl)pyridine-3-carboxamide], the EC30 is less than 3000 nM.

The same assay, now with this note: Table 3; compounds of Table 1 as modulators of CFTR activity; protocol not stated.
As to `COC(=O)[C@@H]1CCCN1c1nc(-c2cc(F)cc(OCC(C)C)c2)ccc1C(=O)NS(=O)(=O)c1cccc(N)n1` [Compound 385, methyl (2S)-1-[3-[(6-amino-2-pyridyl)sulfonylcarbamoyl]-6-(3-fluoro-5-isobutoxy-phenyl)-2-pyridyl]pyrrolidine-2-carboxylate], the EC30 result is “+++ (“+++” means <3 uM)”.

For `COc1ccccc1-c1cc(C(=O)NS(=O)(=O)c2cccc(N)c2)n(C(C)c2ccccc2)n1` (centres unmarked) [Compound 40, N-(3-aminophenyl)sulfonyl-5-(2-methoxyphenyl)-2-(1-phenylethyl)pyrazole-3-carboxamide], the 30% effect concentration (EC30) entry was “+++ (“+++” means <3 uM)”.

Regarding `Cc1cc(C)c(CN2Cc3ccccc3C2(C)C(=O)NS(=O)(=O)c2nccnc2N)c(C)c1` (centres unmarked) [Compound 480, N-(3-aminopyrazin-2-yl)sulfonyl-1-methyl-2-[(2,4,6-trimethylphenyl)methyl]isoindoline-1-carboxamide], the EC30 result is “+++ (“+++” means <3 uM)”.

As to `Cc1cc(C)c(Oc2nc(NC(C)(C)C)ccc2C(=O)NS(=O)(=O)c2cccc(N)n2)c(C)c1` [Compound 273, N-[(6-Amino-2-pyridyl)sulfonyl]-6-(tert-butylamino)-2-(2,4,6-trimethylphenoxy)pyridine-3-carboxamide], the EC30 entry is “+++ (“+++” means <3 uM)”.

As for `CC1CN(c2nc(-c3ccc(Cl)c(OC(C)C)c3)ccc2C(=O)NS(=O)(=O)c2cccc(N)n2)C(C)(C)C1` (centres unmarked) [Compound 504, N-[(6-amino-2-pyridyl)sulfonyl]-6-(4-chloro-3-isopropoxy-phenyl)-2-(2,2,4-trimethylpyrrolidin-1-yl)pyridine-3-carboxamide], the EC30 result is “+++ (“+++” means <3 uM)”.

As for `Cc1cc(C)c(Oc2nc(-c3cccc4nn(C)cc34)ccc2C(=O)NS(=O)(=O)c2cccc(N)n2)c(C)c1` [Compound 451, N-[(6-amino-2-pyridyl)sulfonyl]-6-(2-methylindazol-4-yl)-2-(2,4,6-trimethylphenoxy)pyridine-3-carboxamide], the EC30 result was “++ (“++” means between 3 uM and 10 uM)”.

As to `Cc1cc(C)c(CN2Cc3ccccc3C2C(=O)NS(=O)(=O)c2cccc(=O)[nH]2)c(C)c1` (centres unmarked) [Compound 319, N-[(6-oxo-1H-pyridin-2-yl)sulfonyl]-2-[(2,4,6-trimethylphenyl)methyl]isoindoline-1-carboxamide], the EC30 entry was “++ (“++” means between 3 uM and 10 uM)”.

`Cc1cc(C)c(Oc2nc(-c3cccnc3OCC(F)(F)F)ccc2C(=O)NS(=O)(=O)c2cccc(N)n2)c(C)c1` [Compound 697, N-[(6-amino-2-pyridyl)sulfonyl]-6-[2-(2,2,2-trifluoroethoxy)-3-pyridyl]-2-(2,4,6-trimethylphenoxy)pyridine-3-carboxamide]: the EC30 entry is on record as “+++ (“+++” means <3 uM)”.

Take `Cc1ccc(-c2nc(C(C)(C)C)ccc2C(=O)NS(=O)(=O)c2ccc(C#N)cc2)cc1` [Compound 288, 6-tert-butyl-N-(4-cyanophenyl)sulfonyl-2-(p-tolyl)pyridine-3-carboxamide]: the EC30 result is given as “+++ (“+++” means <3 uM)”.

On to `CCOc1ccc(-c2nc(N3CC(C)CC3(C)C)c(C(=O)NS(=O)(=O)c3cccc(N)n3)cc2C)cc1` (centres unmarked) [Compound 455, N-[(6-amino-2-pyridyl)sulfonyl]-6-(4-ethoxyphenyl)-5-methyl-2-(2,2,4-trimethylpyrrolidin-1-yl)pyridine-3-carboxamide], for which the EC30 result is “+++ (“+++” means <3 uM)”.

In the case of `Cc1cc(C)c(CN2Cc3c(C(C)C)cccc3C2C(=O)NS(=O)(=O)c2ccc[nH]c2=O)c(C)c1` (centres unmarked) [Compound 103, 4-isopropyl-N-[(2-oxo-1H-pyridin-3-yl)sulfonyl]-2-[(2,4,6-trimethylphenyl)methyl]isoindoline-1-carboxamide], the EC30 entry is recorded as “+++ (“+++” means <3 uM)”.

Take `Cc1cc(C)c(Cn2c(C(=O)NS(=O)(=O)c3ccncc3)cc3ccc(Cl)cc32)c(C)c1` [Compound 24, 6-chloro-N-(4-pyridylsulfonyl)-1-[(2,4,6-trimethylphenyl)methyl]indole-2-carboxamide]: the EC30 entry is “++ (“++” means between 3 uM and 10 uM)”.

Turning to `Cc1cc(C)c(Oc2nc(C(C)(C)C)ccc2C(=O)NS(=O)(=O)c2cccc(O)c2)c(C)c1` [Compound 47, 6-tert-butyl-N-(3-hydroxyphenyl)sulfonyl-2-(2,4,6-trimethylphenoxy)pyridine-3-carboxamide], the EC30 result was “+++ (“+++” means <3 uM)”.

`C[C@@H]1CC[C@H](C)N1c1nc(C(C)(C)C)ccc1C(=O)NS(=O)(=O)c1cccc(N)n1` [Compound 373, N-[(6-amino-2-pyridyl)sulfonyl]-6-tert-butyl-2-[(2S,5R)-2,5-dimethylpyrrolidin-1-yl]pyridine-3-carboxamide]: the EC30 entry is “++ (“++” means between 3 uM and 10 uM)”.

Regarding `CC(C)COc1cc(F)cc(-c2ccc(C(=O)NS(=O)(=O)c3ccn[nH]3)c(N3CCC[C@H]3c3ccccc3)n2)c1` [Compound 716, 6-(3-fluoro-5-isobutoxy-phenyl)-2-[(2S)-2-phenylpyrrolidin-1-yl]-N-(1H-pyrazol-5-ylsulfonyl)pyridine-3-carboxamide], the EC30 result is recorded as “+++ (“+++” means <3 uM)”.

As for `Cc1cc(C)c(Oc2nc(-c3cnn(C)c3C)ccc2C(=O)NS(=O)(=O)c2cccc(N)n2)c(C)c1` [Compound 584, N-[(6-amino-2-pyridyl)sulfonyl]-6-(1,5-dimethylpyrazol-4-yl)-2-(2,4,6-trimethylphenoxy)pyridine-3-carboxamide], the EC30 entry was “++ (“++” means between 3 uM and 10 uM)”.

Values taken from patent publication US10758534B2 (Vertex Pharmaceuticals Incorporated, priority 2014, dated 2020).
